Here are results for one substance from patent US20250034264A1, “REGULATING T CELL IMMUNE RESPONSE THROUGH IGF-I RECEPTOR (IGF-1R)” (The Regents of the University of Michigan, priority 2021, published 2025).

What all share (format): cell-based, human
Assay [1] has as its system fibrocytes. In words: HAS1 and HAS2 mRNA, real-time PCR. Conditions: teprotumumab 50 μg/ml or linsitinib 1 μM, 7-9 d. The protocol: (§1) FIGS. 13A-13B are graphs showing the effect of teprotumumab on bTSH induced hyaluronan (HA) production in GD-OF (FIG. 13A) and fibrocytes (FIG. 13B). GD-OF were treated with or without teprotumumab (50 μg/ml) or human Isotype IgG (5 μg/ml) for 7-9 d and stimulated with bTSH (5 mIU/mL) for graded intervals indicated along the abscissa for 0 to 96h. Media were collected and subjected to HA ELISA. Values were normalized to respective cell layer protein levels and expressed as the mean±SD of three independent determinations. Experiments were repeated three times. FIGS. 13C-13F are graphs showing the divergent pattern of hyaluronan synthase (HAS) isoenzyme induction by bTSH in fibrocytes versus GD-OF and effects of teprotumumab (FIGS. 13C and 13D) and linsitinib (FIGS. 13E and 13F). Confluent monolayers of GD-OF and fibrocytes remained untreated or received teprotumumab (50 μg/ml) or linsitinib (1 μM) and human Isotype IgG for 7-9 d. Some cultures were treated with bTSH (5 mIU/mL) for 6h. Cellular RNA was harvested mRNA was reverse transcribed, and cDNA subjected to quantitative real-time PCR for HAS1 and HAS2. Values were normalized to their respective GAPDH levels and are expressed as the mean±SD of three independent determinations. Experiments were repeated three times. *, P<0.05; **, p<0.01; ***. P<0.001.
(§2) Real-time PCR Confluent fibrocyte and GD-OF cultures were incubated with bTSH (5 mIU/mL), teprotumumab (50 μg/mL) or linsitinib (1 μM) for the time intervals indicated, washed with PBS and RNA was extracted with the Aurum Total RNA Mini Kit (cat. #732-6820, Bio-Rad, Hercules, CA). Cellular RNA (2 μg) was reverse transcribed using QuantiTect Reverse Transcription kit (cat. #205314, Qiagen (Germantown, MD) and real-time PCR was performed using an Applied Biosystems instrument with QuantiTect SYBR Green PCR kit (cat. no. 204143; Qiagen, Frederick, MD). Primer sequences were as follows.
In general terms: In qPCR the cycle at which signal appears reflects the starting amount.

Assay [2] relates to GD-OF. In words: HAS1 and HAS2 mRNA, real-time PCR. As to conditions: teprotumumab 50 μg/ml or linsitinib 1 μM, 7-9 d. The protocol:
as §1, §2

Assay [3] has as its system fibrocytes. In words: RNA Pol II ChIP transcription assay. As to conditions: 50 μg/mL. The protocol:
RNA Pol II ChIP transcription assay Transcriptional assays were performed using the method of Wells and Farnham (Methods (San Diego, Calif.) 26, 48-56(2002). Confluent cultures were treated with human Isotype IgG or teprotumumab (50 μg/mL) in DMEM with 10% FBS for 3 d, rinsed, and shifted to DMEM with 1% FBS for 16 h with the respective additives, and then treated without or with bTSH (5 mU/mL) for 2 h. Cross-linked protein/DNA and isolated chromatin fragments were immunoprecipitated with target antibodies: anti-HLA-DPB1 [EPR11226] (cat. #abl57210), anti-CD80 [EPR22183] (cat. #ab225674), anti-CD86 [EPR21962] (cat. #ab239075), and anti-PD-L1 [EPR19759](cat. #ab213524),) from Abcam (Cambridge, MA) using the Pierce™ Agarose Chip Kit (Thermo Scientific, cat #26156). Eluted fractions were reverse cross-linked and isolated DNA subjected to RT-PCR using EpiTect ChIP qPCR Primer Assay for human HLA-DRA (cat. #GPH1011269(-)02A, HLA-DRB1 (cat. #GPH1024837(-)02A), CD80 (cat. #GPH1023189(-)02A), CD86 (cat. #GPH1009502(-)02A), PD-L1 (cat. #GPH1012902(-)02A, Qiagen. GAPDH served as the housekeeping gene and values were generated according to the protocol provided by the supplier.

In assay [4] the test system is fibrocytes. In words: Gene promoter activity assay (Secrete-Pair Dual Luminescence). Conditions: 50 μg/mL. The protocol:
Cell transfections, gene promoter assays and siRNA knockdown studies The nucleofection method was utilized to transfect fibrocytes with the U-023 program of the Nucleofector II instrument (Lonza, Walkersville, MD) and the Amaxa human CD34 cell nucleofection kit (cat. no. VPA-1003; Lonza). To assess human gene promoter activities, appropriate fragments described in earlier reports were selected and cloned for MHC II, CD80, CD86, and PD-L1. Confluent fibrocyte monolayers were treated with human Isotype IgG or teprotumumab (50 μg/mL) for 3 d. Cells were transfected with the following target gene promoter fragment sequences supplied by GeneCopoeia (Rockville, MD): MHC-2 (cat. #HPRM49526), −100 to +1429 nt; CD80 (cat. #HPRM45966), −300 to +1350 nt; CD86 (cat. #HPRM46979), −231 to +1272 nt; PD-L1 (cat. #HPRM40139), −237 to +1282 nt; and negative control clone PG04 (cat. #NEG-PG04). After 3-4 d, cells were incubated without or with bTSH (5 mU/mL) for 2 h. Monolayers were harvested and promoter activities measured using the Secrete-Pair Dual Luminescence Assay Kit (cat. #LF033, GeneCopoeia Rockville, MD) according to manufacturer's instructions in an FB12 tube luminometer (Zylux, Huntsville, AL). Values were normalized to internal controls and each experiment was performed at least three times. […]

Assay [5] deals with fibrocytes. The assay is described as follows: IL-23p19 and IL-12p35 mRNA expression, real-time PCR. Conditions: teprotumumab 50 μg/ml or linsitinib 1 μM, 7-9 d. The protocol:
FIGS. 10A-10F are graphs showing the divergent effect of teprotumumab on bTSH induced IL-23p19 and IL-12p35 expression on fibrocytes and GD-OF. Rinsed fibrocyte and GD-OF monolayers were incubated with or without 50 μg/ml teprotumumab (FIGS. 10A and 10B) or 1 μM linsitinib (FIGS. 10C and 10D) and human Isotype IgG for 7-9 d, and bTSH (5 mIU/mL) was added for 6 h. Harvested RNA was reverse transcribed and isolated cDNA was subjected to quantitative real-time PCR for IL-23p19 and IL-12p35 mRNA levels. Values were normalized to their respective GAPDH levels and are expressed as the mean±SD of three independent determinations. Experiments were repeated three times. FIGS. 10E and 10F are graphs showing the levels of IL-23 protein when rinsed fibrocyte and GD-OF monolayers were incubated with or without 50 μg/ml teprotumumab. **, p<0.01; ***. P<0.001.
as §2

Take teprotumumab: in assay [1], the “HAS2 expression, single agent or in combination with bTSH” value is given as “induced”; the “basal and bTSH-provoked expression of HAS1” value is given as “inhibited”. In assay [2], the “HAS2 expression, single agent or in combination with bTSH” value is listed as “induced”; the “basal and bTSH-provoked expression of HAS1” value was “inhibited”. Further, the “basal and bTSH-induced transcription of MHC II, CD80, CD86, PD-L1 genes” value in assay [3] is “attenuated”. In addition, the “activities of MHC II, CD80, CD86, PD-L1 gene promoter fragments” value in assay [4] (3 days) is “downregulated”. Also, the “bTSH induction of each gene promoter fragment” value in assay [4] (bTSH 2 h) is on record as “attenuated”. In addition, in assay [5], the “IL-12p35 expression, basal and induction by bTSH” value is “enhances”; the “IL-23p19 expression, basal and induction by bTSH” value is on record as “inhibited”.
